Values joined by “and” are separate entries in the source; they are usually repeats but may differ in a detail not shown here. Equal entries are not always repeated. Structures can show the parent of a compound that is named as a salt. Where two headings read alike, the source gives them in different places. Marks after values point to notes of the source that are not given here.
Experiments:
[1] = Evaluation of hippocampal distribution in mouse; format: in vivo; details: male ICR mice, 10 mg/kg oral; for concentration at 1 h: 1 hr after administration; for concentration at 0.5 h: 0.5 hr after administration
Outline: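 Male ICR mice dosed orally at 10 mg/kg as suspension in 0.5% methylcellulose/0.02% citric acid/water. Plasma and hippocampus sampled together at 0.5, 1 or 1.5 h; LC/MS/MS concentrations gave hippocampus/plasma ratio.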

[2] = system: Gad1 H3K4me2 level in rat primary culture neurons; experiment: Gad1 H3K4 methylation induction activity in rat primary culture neurons (ChIP-qPCR); format: cell-based; details: control without compound = 100%; for activity at 1 µM / activity at 10 µM: Rattus norvegicus, Neuron, 72 h; for activity at 1 µM: read-out: Gad1 H3K4me2 induction activity (%), compound 1 μM, 3 days, rat primary culture neurons; for activity at 10 µM: read-out: Gad1 H3K4me2 induction activity (%), compound 10 μM, 3 days, rat primary culture neurons
Protocol: Gad1 H3K4 Methylation Induction Activity in Rat Primary Culture Neurons
Thereafter, the compound was added to final concentrations of 1 or 10 μM, and the cells were further cultured for 3 days. The culture supernatant was aspirated, ice-cold PBS was added, and the cell suspension was collected on ice using CELL SCRAPER (IWAKI). […] (750 μL). Furthermore, 0.3% NP40/cell lysis buffer 1 (750 μL) was added, and the cells were lysed by incubating for 5 min on ice.
Using the DNA obtained by the chromatin immunoprecipitation as a template, quantitative PCR of the Gad1 gene upstream genomic region was performed, and the measurement value was taken as the Gad1 H3K4me2 level. […] The Gad1 H3K4me2 induction by the compound was expressed by the H3K4me2 level when the compound was added, as compared to the H3K4me2 level of the control (without addition of the compound) as 100%.

[3] = system: white blood cell number, red blood cell number, platelet number; experiment: Evaluation of blood cell number in mouse; format: in vivo; details: oral, Day 2 after administration
Outline: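 Male ICR mice dosed orally at 1, 10, 50 or 100 mg/kg (suspension in 0.5% methylcellulose/0.02% citric acid/water); whole blood collected on Day 2. White cell, red cell and platelet counts per unit volume by automated haematology analyser, expressed as % of mean of untreated control group.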

[4] = hippocampus, read-out: hippocampus concentration (mean)
[5] = plasma, read-out: plasma concentration (mean)

Cc1nnc(NC(=O)c2cccc([C@@H]3C[C@H]3NCC3CC3)c2)s1 (relative stereo) [Example 96, 3-(trans-2-((cyclopropylmethyl)amino)cyclopropyl)-N-(5-methyl-1,3,4-thiadiazol-2-yl)benzamide hydrochloride] gave a concentration at 1 h [1, 4] of 602 ng/g, a concentration at 1 h [1, 5] of 1060 ng/mL and an activity at 1 µM [2] of 122%. The activity at 10 µM [2] was 151%, the “platelet number, percentage of compound administration group compared to control group, mean” value (from here on “platelet number, percentage”) ([3]; 1 mg/kg) was 100.9^b % and the “red blood cell number, percentage of compound administration group compared to control group, mean” value (from here on “red blood cell number, percentage”) ([3]; 1 mg/kg) was 107.4^b %. For the same compound, the “white blood cell number, percentage of compound administration group compared to control group, mean” value (“white blood cell number, percentage” below) ([3]; 1 mg/kg) was 116.6^b %, the “platelet number, percentage” value ([3]; 10 mg/kg, hydrochloride) was 102.1% and 101.0^c % and the “red blood cell number, percentage” value ([3]; 10 mg/kg, hydrochloride) was 97.9% and 102.6^c %. For the same compound, the “white blood cell number, percentage” value ([3]; 10 mg/kg, hydrochloride) was 61.5% and 122.4^c %, the “platelet number, percentage” value ([3]; 100 mg/kg) was 102.4% and the “red blood cell number, percentage” value ([3]; 100 mg/kg) was 100.7%. For the same compound, the “white blood cell number, percentage” value ([3]; 100 mg/kg) was 65.5%.

O=C(NC1CC(F)(F)C1)c1cccc([C@@H]2C[C@H]2NCC2CC2)c1 (relative stereo) [Example 99, 3-(trans-2-((cyclopropylmethyl)amino)cyclopropyl)-N-(3,3-difluorocyclobutyl)benzamide hydrochloride] gave a concentration at 1 h [1, 4] of 283 ng/g, a concentration at 1 h [1, 5] of 143 ng/mL and an activity at 1 µM [2] of 174%. The activity at 10 µM [2] was 181%, the “platelet number, percentage” value ([3]; 10 mg/kg) was 116.9% and the “red blood cell number, percentage” value ([3]; 10 mg/kg) was 102.8%. For the same compound, the “white blood cell number, percentage” value ([3]; 10 mg/kg) was 66.0%, the “platelet number, percentage” value ([3]; 100 mg/kg) was 111.1% and the “red blood cell number, percentage” value ([3]; 100 mg/kg) was 101.5%. For the same compound, the “white blood cell number, percentage” value ([3]; 100 mg/kg) was 79.4%.

In the case of CCn1cc(NC(=O)c2cccc([C@@H]3C[C@H]3NCC3CC3)c2)cn1 (relative stereo) [Example 101, 3-(trans-2-((cyclopropylmethyl)amino)cyclopropyl)-N-(1-ethyl-1H-pyrazol-4-yl)benzamide dihydrochloride], the concentration at 0.5 h [1, 4] is reported as 181 ng/g, the concentration at 0.5 h [1, 5] is reported as 907 ng/mL and the activity at 1 µM [2] is reported as 128%. For the same compound, the activity at 10 µM [2] was 135%, the “platelet number, percentage” value ([3]; 10 mg/kg) was 107.9% and the “red blood cell number, percentage” value ([3]; 10 mg/kg) was 99.2%. For the same compound, the “white blood cell number, percentage” value ([3]; 10 mg/kg) was 121.8%, the “platelet number, percentage” value ([3]; 100 mg/kg) was 108.9% and the “red blood cell number, percentage” value ([3]; 100 mg/kg) was 98.5%. The “white blood cell number, percentage” value ([3]; 100 mg/kg) was 100.4%.

For Cc1cc(NC(=O)c2cccc([C@@H]3C[C@H]3NCC3CC3)c2)no1 (relative stereo) [Example 103, 3-(trans-2-((cyclopropylmethyl)amino)cyclopropyl)-N-(5-methyl-1,2-oxazol-3-yl)benzamide hydrochloride], the concentration at 1 h [1, 4] was 1030 ng/g, the concentration at 1 h [1, 5] was 375 ng/mL and the activity at 1 µM [2] was 139%. The activity at 10 µM [2] was 134%, the “platelet number, percentage” value ([3]; 10 mg/kg) was 88.7% and the “red blood cell number, percentage” value ([3]; 10 mg/kg) was 95.0%. The “white blood cell number, percentage” value ([3]; 10 mg/kg) was 100.9%, the “platelet number, percentage” value ([3]; 100 mg/kg) was 96.8% and the “red blood cell number, percentage” value ([3]; 100 mg/kg) was 98.5%. For the same compound, the “white blood cell number, percentage” value ([3]; 100 mg/kg) was 105.9%.

In the case of O=C(NC1CCN(CC(F)(F)F)CC1)c1cccc([C@@H]2C[C@H]2NCC2CC2)c1 (relative stereo) [Example 108, 3-(trans-2-((cyclopropylmethyl)amino)cyclopropyl)-N-(1-(2,2,2-trifluoroethyl)piperidin-4-yl)benzamide dihydrochloride], the concentration at 0.5 h [1, 4] is reported as 983 ng/g, the concentration at 0.5 h [1, 5] is reported as 684 ng/mL and the activity at 1 µM [2] is reported as 384%. For the same compound, the activity at 10 µM [2] was 268%, the “platelet number, percentage” value ([3]; 10 mg/kg) was 101.9% and the “red blood cell number, percentage” value ([3]; 10 mg/kg) was 99.0%. For the same compound, the “white blood cell number, percentage” value ([3]; 10 mg/kg) was 127.7%, the “platelet number, percentage” value ([3]; 100 mg/kg) was 94.2% and the “red blood cell number, percentage” value ([3]; 100 mg/kg) was 98.7%. For the same compound, the “white blood cell number, percentage” value ([3]; 100 mg/kg) was 129.4%.

Compound Cc1nnc(NC(=O)c2cc([C@@H]3C[C@H]3NCC3CC3)ccc2F)s1 (relative stereo) [Example 110, 5-(trans-2-((cyclopropylmethyl)amino)cyclopropyl)-2-fluoro-N-(5-methyl-1,3,4-thiadiazol-2-yl)benzamide dihydrochloride] has a concentration at 0.5 h [1, 4] of 3300 ng/g, a concentration at 0.5 h [1, 5] of 4490 ng/mL and an activity at 1 µM [2] of 172%. For the same compound, the activity at 10 µM [2] was 208%, the “platelet number, percentage” value ([3]; 10 mg/kg) was 93.4% and the “red blood cell number, percentage” value ([3]; 10 mg/kg) was 98.7%. The “white blood cell number, percentage” value ([3]; 10 mg/kg) was 114.9%, the “platelet number, percentage” value ([3]; 100 mg/kg) was 96.4% and the “red blood cell number, percentage” value ([3]; 100 mg/kg) was 100.4%. For the same compound, the “white blood cell number, percentage” value ([3]; 100 mg/kg) was 112.0%.

In the case of Cc1nnc(NC(=O)c2cccc([C@@H]3C[C@H]3NC3CCOCC3)c2)s1 (relative stereo) [Example 165, N-(5-methyl-1,3,4-thiadiazol-2-yl)-3-(trans-2-(tetrahydro-2H-pyran-4-ylamino)cyclopropyl)benzamide fumarate], the concentration at 1 h [1, 4] is reported as 376 ng/g, the concentration at 1 h [1, 5] is reported as 1840 ng/mL and the activity at 1 µM [2] is reported as 272%. For the same compound, the activity at 10 µM [2] was 373%, the “platelet number, percentage” value ([3]; 10 mg/kg) was 99.3% and the “red blood cell number, percentage” value ([3]; 10 mg/kg) was 100.9%. For the same compound, the “white blood cell number, percentage” value ([3]; 10 mg/kg) was 104.4%, the “platelet number, percentage” value ([3]; 100 mg/kg) was 85.6% and the “red blood cell number, percentage” value ([3]; 100 mg/kg) was 103.2%. The “white blood cell number, percentage” value ([3]; 100 mg/kg) was 87.0%.

In the case of O=C(NC1CCCC1)c1cccc([C@@H]2C[C@H]2NC2CCOCC2)c1 (relative stereo) [Example 168, N-cyclopentyl-3-(trans-2-(tetrahydro-2H-pyran-4-ylamino)cyclopropyl)benzamide hydrochloride], the concentration at 0.5 h [1, 4] is reported as 439 ng/g, the concentration at 0.5 h [1, 5] is reported as 451 ng/mL and the activity at 1 µM [2] is reported as 227%. For the same compound, the activity at 10 µM [2] was 263%, the “platelet number, percentage” value ([3]; 10 mg/kg) was 106.8% and the “red blood cell number, percentage” value ([3]; 10 mg/kg) was 106.5%. The “white blood cell number, percentage” value ([3]; 10 mg/kg) was 97.6%, the “platelet number, percentage” value ([3]; 100 mg/kg) was 99.0% and the “red blood cell number, percentage” value ([3]; 100 mg/kg) was 101.1%. For the same compound, the “white blood cell number, percentage” value ([3]; 100 mg/kg) was 93.6%.

In the case of Cn1cc(NC(=O)c2cccc([C@@H]3C[C@H]3NC3CCCC3)c2)cn1 (relative stereo) [Example 172, 3-(trans-2-(cyclopentylamino)cyclopropyl)-N-(1-methyl-1H-pyrazol-4-yl)benzamide dihydrochloride], the concentration at 1 h [1, 4] is reported as 419 ng/g, the concentration at 1 h [1, 5] is reported as 556 ng/mL and the activity at 1 µM [2] is reported as 145%. For the same compound, the activity at 10 µM [2] was 204%, the “platelet number, percentage” value ([3]; 10 mg/kg) was 97.0% and the “red blood cell number, percentage” value ([3]; 10 mg/kg) was 99.0%. The “white blood cell number, percentage” value ([3]; 10 mg/kg) was 101.3%, the “platelet number, percentage” value ([3]; 100 mg/kg) was 99.6% and the “red blood cell number, percentage” value ([3]; 100 mg/kg) was 97.7%. For the same compound, the “white blood cell number, percentage” value ([3]; 100 mg/kg) was 130.0%.

For Cc1nnc(NC(=O)c2cccc(C3CC3NCC3CC3)c2)s1 (single isomer, unassigned) [Example 98, 3-(trans-2-((cyclopropylmethyl)amino)cyclopropyl)-N-(5-methyl-1,3,4-thiadiazol-2-yl)benzamide hydrochloride (Optical Isomer, Retention Time Long)], the activity at 1 µM [2] was 114%, the “Gad1 H3K4me2 induction activity (%)” value ([2]; compound 10 μM, 3 days, rat primary culture neurons) was 133% and the “platelet number, percentage” value ([3]; 1 mg/kg) was 105.4^b %. For the same compound, the “red blood cell number, percentage” value ([3]; 1 mg/kg) was 103.6^b %, the “white blood cell number, percentage” value ([3]; 1 mg/kg) was 96.5^b % and the “platelet number, percentage” value ([3]; 10 mg/kg) was 102.0^c %. For the same compound, the “red blood cell number, percentage” value ([3]; 10 mg/kg) was 105.6^c % and the “white blood cell number, percentage” value ([3]; 10 mg/kg) was 106.5^c %.
